Laboratory results: patent US20070099276A1, “Retrovirus-like particles and retroviral vaccines” (priority 2003, published 2007)

Molecular target: HIV protease (Human immunodeficiency virus type 1 group M subtype B, UniProt P12497)
Format: cell-based, HIV-1
Procedure: Retrovirus-like particles and virions were isolated by centrifugation through a 20% sucrose pad in a SW28.1Ti rotor (Beckman-Coulter, Inc., Fullerton, Calif.) at 120,000 g at 4° C. for 1 hour. Immunoblot analyses of retrovirus-like particles and virion preparations (the equivalent of 10% of the transfection supernatant) were performed as previously described, using peroxidase-conjugated secondary antibodies and developed with the Enhanced ChemiLuminescence reagent (Amersham Life Science, Arlington Heights, Ill.). Rabbit antiserum against p6Gag (DJ-30552) and goat antiserum against, p7NC (#77), p17MA (#83), or p24CA (#81) were obtained from the AIDS Vaccine Program. Monoclonal antibody against reverse transcriptase was obtained from Perkin Elmer/NEN Life Science. N-terminal protein sequence analysis was carried out on an Applied Biosystems Procise model 494 microsequencer (Foster City, Calif.) as previously described (Chertova et al., J. Virol., 76:5315 (2002)). Micro-scale high-pressure liquid chromatography (HPLC) was performed as previously described (Chertova et al., J. Virol. 76:5315 (2002)). Matrix-assisted laser desorption/ionization-time-of-flight (MALDI) mass spectrometry was carried out as previously described (Ott et al., J. Virol., 73:19 (1999)) using a Kratos Kompact Probe (Kratos Analytical Inc., Chestnut Ridge, N.Y.).
To examine protease activity and mutant budding in another way, 293T cells were transfected with pNL4-3 or DelNC and then treated without or with 10 nM of the protease inhibitor Saquinavir for 24 hours.

CC(C)(C)NC(=O)[C@@H]1C[C@@H]2CCCC[C@@H]2CN1C[C@@H](O)[C@H](Cc1ccccc1)NC(=O)[C@H](CC(N)=O)NC(=O)c1ccc2ccccc2n1 [Saquinavir]
effect on DelNC Gag processing: essentially eliminated
effect on amount of pNL4-3 virions in the medium: not largely increased
effect on cleavage of NL4-3 Gag: only a slight reduction
effect on production of DelNC retrovirus-like particles: increased
